Results reported in US12139520B2 (priority 2020, dated 2024).
Numbered stars: 1 amine (or outer) side, 2 acyl side, 3 side chain; on linkers, the order of the positions; unused ones are H or OH. Bridge positions count the residues as written; N and C are the ends. Square brackets hold non-standard residues; d marks the D form. Peptide text beside a SMILES is read from it. * marks the point of attachment. C20 diacid = O=C(O)CCCCCCCCCCCCCCCCCCC(=O)*; γGlu = O=C(O)[C@H](CCC(=O)[*:2])N[*:1]; Hyp = O=C(O)[C@@H]1C[C@@H](O)CN1; NMeI = CC[C@H](C)[C@H](NC)C(=O)O; Sar = CNCC(=O)O

Molecular target: T1, hAMY3 receptor (Homo sapiens, UniProt O60896+P30988)
T1 sequence (P30988 25-474): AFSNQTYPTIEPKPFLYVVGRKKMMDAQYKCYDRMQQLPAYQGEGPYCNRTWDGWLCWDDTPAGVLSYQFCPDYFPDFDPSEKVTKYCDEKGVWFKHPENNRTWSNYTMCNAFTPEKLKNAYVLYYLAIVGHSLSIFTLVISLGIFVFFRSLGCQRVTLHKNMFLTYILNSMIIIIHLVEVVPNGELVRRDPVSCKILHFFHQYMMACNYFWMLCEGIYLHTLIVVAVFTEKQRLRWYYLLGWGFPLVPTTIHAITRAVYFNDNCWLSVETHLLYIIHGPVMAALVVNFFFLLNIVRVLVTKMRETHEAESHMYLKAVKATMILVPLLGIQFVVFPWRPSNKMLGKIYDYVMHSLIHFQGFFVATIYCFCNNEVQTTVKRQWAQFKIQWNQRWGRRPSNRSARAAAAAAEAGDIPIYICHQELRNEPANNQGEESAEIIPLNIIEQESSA
T1 sequence (O60896 24-148 partner): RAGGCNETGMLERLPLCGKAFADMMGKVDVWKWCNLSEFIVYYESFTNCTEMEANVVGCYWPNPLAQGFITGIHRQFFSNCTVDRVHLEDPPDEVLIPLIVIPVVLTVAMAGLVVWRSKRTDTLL
Assay: cAMP assay for in vitro receptor activation, hAMY3-R
Type: cell-based
Conditions: cAMP assay, hAMY3 receptor; read-out: hAMY3R EC50
Method: General Protocols for cAMP Assays for Measuring In Vitro Receptor Activation
Cells stably overexpressing the hAMY3 receptor were obtained from Ogeda (now Astellas Pharma), sub-cloned and a monoclonal cell-line with an appropriate assay-window was expanded, aliquoted and frozen.
An aliquot was thawed and plated in DPBS with 0.05% casein and 0.5 mM IBMX as 2000 cells/well in a 384-well format. The cells were then immediately stimulated for 30 min at room temperature with graded doses of test compound using human amylin (Bachem, cat no. H-7905) as a positive control. cAMP accumulation was measured using a Cisbio assay for Gs coupled receptors (cat. no. 62AM4PEC), where the assay reagents were added as per the manufacturer's instructions and time-resolved fluorescence energy transfer recorded after one hour.

CC(C)C[C@H](NC(=O)[C@H](CCCNC(=N)N)NC(=O)[C@H](CCC(N)=O)NC(=O)[C@@H](NC(=O)[C@@H](NC(=O)[C@@H]1CSSC[C@H](NC(=O)CN)C(=O)N[C@@H](CCCNC(=N)N)C(=O)N[C@@H](Cc2ccccc2)C(=O)NCC(=O)N[C@@H]([C@@H](C)O)C(=O)N1)[C@@H](C)O)C(C)C)C(=O)N[C@@H](C)C(=O)N[C@@H](Cc1c[nH]cn1)C(=O)N[C@@H](Cc1ccccc1)C(=O)N[C@@H](CC(C)C)C(=O)N[C@@H](Cc1ccc(O)cc1)C(=O)N[C@@H](CCC(N)=O)C(=O)N[C@@H](Cc1ccccc1)C(=O)N[C@H](C(=O)N[C@@H](CC(=O)O)C(=O)N[C@@H](CCCCN)C(=O)N[C@@H](CC(=O)O)C(=O)N[C@@H](CCCCN)C(=O)N[C@@H](CC(=O)O)C(=O)N[C@@H](CC(N)=O)C(=O)N[C@H](C(=O)N[C@@H](C)C(=O)N1CCC[C@H]1C(=O)N[C@@H](CCCNC(=N)N)C(=O)N[C@H](C(=O)N[C@@H](CC(N)=O)C(=O)N[C@H](C(=O)NCC(=O)N1CCC[C@H]1C(=O)N[C@@H](CCC(N)=O)C(=O)NCC(=O)N[C@@H](Cc1ccc(O)cc1)C(N)=O)C(C)C)[C@@H](C)O)C(C)C)[C@@H](C)O [compound 54] (H-GCRFGTCTVQRLAHFLYQFTDKDKDNVAPRTNVGPQGY-NH2; disulfide 2-7; N-terminus assumed)
EC50: 0.012 nM

CC[C@H](C)[C@H](NC(=O)[C@H](CCC(N)=O)NC(=O)[C@H](Cc1c[nH]cn1)NC(=O)[C@H](C)NC(=O)[C@H](CC(C)C)NC(=O)[C@H](CCCNC(=N)N)NC(=O)[C@H](CCC(=O)O)NC(=O)[C@@H](NC(=O)[C@@H](NC(=O)[C@@H]1CSSC[C@H](NC(=O)[C@H](CCCCN)NC(=O)CC[C@H](NC(=O)CCCCCCCCCCCCCCCCCCC(=O)O)C(=O)O)C(=O)N[C@@H](CC(N)=O)C(=O)N[C@@H]([C@@H](C)O)C(=O)N[C@@H](C)C(=O)N[C@@H]([C@@H](C)O)C(=O)N1)[C@@H](C)O)C(C)C)C(=O)N[C@@H](Cc1ccc(O)cc1)C(=O)N[C@@H](CCC(N)=O)C(=O)N[C@@H](Cc1ccccc1)C(=O)N[C@H](C(=O)N[C@@H](CC(=O)O)C(=O)N[C@@H](CCCCN)C(=O)N[C@@H](CC(=O)O)C(=O)N[C@@H](CCCCN)C(=O)N[C@@H](CC(=O)O)C(=O)N[C@@H](CC(N)=O)C(=O)N[C@H](C(=O)N[C@@H](C)C(=O)N1CCC[C@H]1C(=O)N1CCC[C@H]1C(=O)N[C@H](C(=O)N[C@@H](CC(N)=O)C(=O)N[C@H](C(=O)NCC(=O)N[C@@H](CO)C(=O)N[C@@H](CC(N)=O)C(=O)NCC(=O)N1C[C@H](O)C[C@H]1C(N)=O)C(C)C)[C@@H](C)O)C(C)C)[C@@H](C)O [compound 55] ({C20 diacid-γGlu}-KCNTATCTVERLAHQIYQFTDKDKDNVAPPTNVGSNG[Hyp]-NH2; disulfide 2-7)
EC50: 0.012 nM

CC(C)C[C@H](NC(=O)[C@H](CCCNC(=N)N)NC(=O)[C@H](CCC(N)=O)NC(=O)[C@@H](NC(=O)[C@@H](NC(=O)[C@@H]1CSSC[C@H](NC(=O)CN)C(=O)N[C@@H](CCCNC(=N)N)C(=O)N[C@@H](Cc2ccccc2)C(=O)NCC(=O)N[C@@H]([C@@H](C)O)C(=O)N1)[C@@H](C)O)C(C)C)C(=O)N[C@@H](C)C(=O)N[C@@H](Cc1c[nH]cn1)C(=O)N[C@@H](Cc1ccccc1)C(=O)N[C@@H](CC(C)C)C(=O)N[C@@H](Cc1ccc(O)cc1)C(=O)N[C@@H](CCC(N)=O)C(=O)N[C@@H](Cc1ccccc1)C(=O)N[C@H](C(=O)N[C@@H](CC(=O)O)C(=O)N[C@@H](CCCCN)C(=O)N[C@@H](CC(=O)O)C(=O)N[C@@H](CCCCN)C(=O)N[C@@H](CC(=O)O)C(=O)N[C@@H](CC(N)=O)C(=O)N[C@H](C(=O)N[C@@H](C)C(=O)N1CCC[C@H]1C(=O)N[C@@H](CCCNC(=N)N)C(=O)N[C@H](C(=O)N[C@@H](CC(N)=O)C(=O)N[C@H](C(=O)NCC(=O)N[C@@H](CO)C(=O)N[C@@H](CC(N)=O)C(=O)N[C@H](C(=O)N[C@@H](Cc1ccc(O)cc1)C(N)=O)[C@@H](C)O)C(C)C)[C@@H](C)O)C(C)C)[C@@H](C)O [compound 56] (H-GCRFGTCTVQRLAHFLYQFTDKDKDNVAPRTNVGSNTY-NH2; disulfide 2-7; N-terminus assumed)
EC50: 0.012 nM

CC[C@H](C)[C@H](NC(=O)[C@H](CCC(N)=O)NC(=O)[C@H](Cc1c[nH]cn1)NC(=O)[C@H](C)NC(=O)[C@H](CC(C)C)NC(=O)[C@H](CCCNC(=N)N)NC(=O)[C@H](CCC(N)=O)NC(=O)[C@@H](NC(=O)[C@@H](NC(=O)[C@@H]1CSSC[C@H](NC(=O)[C@H](CCCCN)NC(=O)CC[C@H](NC(=O)CCCCCCCCCCCCCCCCCCC(=O)O)C(=O)O)C(=O)N[C@@H](CC(N)=O)C(=O)N[C@@H]([C@@H](C)O)C(=O)N[C@@H](C)C(=O)N[C@@H]([C@@H](C)O)C(=O)N1)[C@@H](C)O)C(C)C)C(=O)N[C@@H](Cc1ccc(O)cc1)C(=O)N[C@@H](CCC(N)=O)C(=O)N[C@@H](Cc1ccccc1)C(=O)N[C@@H](CO)C(=O)N[C@@H](CC(=O)O)C(=O)N[C@@H](CCCCN)C(=O)N[C@@H](CC(=O)O)C(=O)N[C@@H](CCCCN)C(=O)N[C@@H](CC(=O)O)C(=O)N[C@@H](CC(N)=O)C(=O)N[C@H](C(=O)N[C@@H](C)C(=O)N1CCC[C@H]1C(=O)N1CCC[C@H]1C(=O)N[C@H](C(=O)N[C@@H](CC(N)=O)C(=O)N[C@H](C(=O)NCC(=O)N[C@@H](CO)C(=O)N[C@@H](CC(N)=O)C(=O)NCC(=O)N1C[C@H](O)C[C@H]1C(N)=O)C(C)C)[C@@H](C)O)C(C)C [compound 57] ({C20 diacid-γGlu}-KCNTATCTVQRLAHQIYQFSDKDKDNVAPPTNVGSNG[Hyp]-NH2; disulfide 2-7)
EC50: 0.012 nM

CC[C@H](C)[C@H](NC(=O)[C@H](CCC(N)=O)NC(=O)[C@H](Cc1c[nH]cn1)NC(=O)[C@H](C)NC(=O)[C@H](CC(C)C)NC(=O)[C@H](CCCNC(=N)N)NC(=O)[C@H](CCC(N)=O)NC(=O)[C@@H](NC(=O)[C@@H](NC(=O)[C@@H]1CSSC[C@H](NC(=O)[C@H](CCCCN)NC(=O)CC[C@H](NC(=O)CCCCCCCCCCCCCCCCCCC(=O)O)C(=O)O)C(=O)N[C@@H](CC(N)=O)C(=O)N[C@@H](Cc2ccccc2)C(=O)N[C@@H](C)C(=O)N[C@@H]([C@@H](C)O)C(=O)N1)[C@@H](C)O)C(C)C)C(=O)N[C@@H](Cc1ccc(O)cc1)C(=O)N[C@@H](CCC(N)=O)C(=O)N[C@@H](Cc1ccccc1)C(=O)N[C@H](C(=O)N[C@@H](CC(=O)O)C(=O)N[C@@H](CCCCN)C(=O)N[C@@H](CC(=O)O)C(=O)N[C@@H](CCCCN)C(=O)N[C@@H](CC(=O)O)C(=O)N[C@@H](CC(N)=O)C(=O)N[C@H](C(=O)N[C@@H](C)C(=O)N1CCC[C@H]1C(=O)N1CCC[C@H]1C(=O)N[C@H](C(=O)N[C@@H](CCC(=O)O)C(=O)N[C@H](C(=O)NCC(=O)N[C@@H](CO)C(=O)N[C@@H](CC(N)=O)C(=O)NCC(=O)N1C[C@H](O)C[C@H]1C(N)=O)C(C)C)[C@@H](C)O)C(C)C)[C@@H](C)O [compound 68] ({C20 diacid-γGlu}-KCNFATCTVQRLAHQIYQFTDKDKDNVAPPTEVGSNG[Hyp]-NH2; disulfide 2-7)
EC50: 0.013 nM

CC[C@H](C)[C@@H](C(=O)N[C@@H](CC(C)C)C(=O)N[C@@H](CO)C(=O)N[C@@H](CO)C(=O)N[C@H](C(=O)N[C@@H](CCC(=O)O)C(=O)N[C@H](C(=O)NCC(=O)N[C@@H](CO)C(=O)N[C@@H](CC(N)=O)C(=O)N[C@H](C(=O)N1C[C@H](O)C[C@H]1C(N)=O)[C@@H](C)O)C(C)C)[C@@H](C)O)N(C)C(=O)[C@H](C)NC(=O)CN(C)C(=O)[C@H](Cc1ccccc1)NC(=O)[C@H](CO)NC(=O)[C@H](CO)NC(=O)[C@H](CCCNC(=N)N)NC(=O)[C@H](CCC(N)=O)NC(=O)[C@H](CC(C)C)NC(=O)[C@H](Cc1ccccc1)NC(=O)[C@H](Cc1c[nH]cn1)NC(=O)[C@H](C)NC(=O)[C@H](CC(C)C)NC(=O)[C@H](CCCNC(=N)N)NC(=O)[C@H](CCC(=O)O)NC(=O)[C@@H](NC(=O)[C@H](C)NC(=O)[C@@H]1CSSC[C@H](NC(=O)[C@H](CCCNC(=N)N)NC(=O)CC[C@H](NC(=O)CCCCCCCCCCCCCCCCCCC(=O)O)C(=O)O)C(=O)N[C@@H](CCC(N)=O)C(=O)N[C@@H]([C@@H](C)O)C(=O)N[C@@H](C)C(=O)N[C@@H]([C@@H](C)O)C(=O)N1)[C@@H](C)O [compound 80] ({C20 diacid-γGlu}-RCQTATCATERLAHFLQRSSF[Sar]A[NMeI]LSSTEVGSNT[Hyp]-NH2; disulfide 2-7)
EC50: 0.015 nM
